The results in this text go back to ChEMBL document CHEMBL3286119, “Biarylmethoxy Nicotinamides As Novel and Specific Inhibitors of Mycobacterium tuberculosis” (ACS Med Chem Lett, 2014).

In brackets after ≈: the same amount, converted by molar mass. Activity calls are given as the source filed them. The calls are words filed in the database; no cut-off is given here. Where only a bound is given, the exact number is not on record here.

The subject of data set [1] is Mycobacterium tuberculosis. Description: Antimicrobial activity against Mycobacterium tuberculosis H37Rv ATCC 27294 after 5 days by microdilution method. To be noted: H37Rv ATCC 27294, 120 h. The class given is functional.
Data set [2] can be described thus: Cytotoxicity against human THP1 cells after 24 hrs by resazurin assay. In kind it is cell-based, THP-1. To be noted: read-out: MIC.
Data set [3] is described as follows: Lipophilicity, log D of the compound. The note with it: octanol/water. In kind it is physicochemical.
Data set [4] relates to Streptococcus pneumoniae. Description: Antimicrobial activity against Streptococcus pneumoniae ARC548 after 5 days by microdilution method. In kind it is functional. To be noted: ARC548, 120 h.
Data set [5] deals with Pseudomonas aeruginosa. The experiment in a line: Antimicrobial activity against Pseudomonas aeruginosa ARC546 after 5 days by microdilution method. The class given is functional. To be noted: ARC546, 120 h.
Data set [6] relates to Klebsiella pneumoniae. The experiment in a line: Antimicrobial activity against Klebsiella pneumoniae ARC1865 after 5 days by microdilution method. The class given is functional. To be noted: ARC1865, 120 h.
The subject of data set [7] is Streptococcus pyogenes. Description: Antimicrobial activity against Streptococcus pyogenes after 5 days by microdilution method. In kind it is functional. The note with it: 120 h.
The test system of data set [8] is Candida albicans. Description: Antimicrobial activity against Candida albicans ARC526 after 5 days by microdilution method. The note with it: ARC526, 120 h. The class given is functional.
For data set [9], the target named is Cytochrome P450 2C19 (Homo sapiens, UniProt P33261). The experiment in a line: Inhibition of CYP2C19 (unknown origin). The class given is ADME.
Data set [10] deals with Mycobacterium tuberculosis. Description: Antimicrobial activity against Mycobacterium tuberculosis Erdman after 2 to 3 weeks. The class given is functional, organism-based.
The subject of data set [11] is Mycobacterium tuberculosis. The experiment in a line: Antimicrobial activity against Mycobacterium tuberculosis ATCC 25618 after 2 to 3 weeks. In kind it is functional, organism-based.
In data set [12] the test system is Mycobacterium tuberculosis. Description: Antimicrobial activity against Mycobacterium tuberculosis ATCC 35811 after 2 to 3 weeks. The class given is functional, organism-based.
The test system of data set [13] is Mycobacterium tuberculosis. Description: Antimicrobial activity against Mycobacterium tuberculosis Beijing after 2 to 3 weeks. The class given is functional, organism-based.
The subject of data set [14] is Mycobacterium tuberculosis. The experiment in a line: Antimicrobial activity against Mycobacterium tuberculosis Harlingen after 2 to 3 weeks. In kind it is functional, organism-based.
Data set [15] concerns Mycobacterium tuberculosis. Description: Antimicrobial activity against Mycobacterium tuberculosis DKU211 clinical isolate after 2 to 3 weeks. The class given is functional, organism-based.
Data set [16] has as its system Mycobacterium tuberculosis. Description: Antimicrobial activity against Mycobacterium tuberculosis DKU220 clinical isolate after 2 to 3 weeks. The class given is functional, organism-based.
The test system of data set [17] is Mycobacterium tuberculosis. The experiment in a line: Antimicrobial activity against Mycobacterium tuberculosis DKU 76 clinical isolate after 2 to 3 weeks. The class given is functional, organism-based.
Data set [18] concerns Mycobacterium tuberculosis. Description: Antimicrobial activity against Mycobacterium tuberculosis 97A clinical isolate after 2 to 3 weeks. The class given is functional, organism-based.
The test system of data set [19] is Mycobacterium tuberculosis. The experiment in a line: Antimicrobial activity against Mycobacterium tuberculosis JALMA clinical isolate after 2 to 3 weeks. The class given is functional, organism-based.
The test system of data set [20] is Mycobacterium tuberculosis. Description: Antimicrobial activity against ofloxacin Mycobacterium tuberculosis 12119 after 2 to 3 weeks. In kind it is functional, organism-based.
Data set [21] relates to Pseudomonas aeruginosa. The experiment in a line: Antimicrobial activity against Pseudomonas aeruginosa ARC545 after 5 days by microdilution method. The class given is functional. To be noted: ARC545, 120 h.
The subject of data set [22] is Escherichia coli. The experiment in a line: Antimicrobial activity against Escherichia coli ARC523 after 5 days by microdilution method. To be noted: ARC523, 120 h. The class given is functional.
Data set [23] has as its system Escherichia coli. The experiment in a line: Antimicrobial activity against Escherichia coli ARC524 after 5 days by microdilution method. The note with it: ARC524, 120 h. In kind it is functional.
The subject of data set [24] is Haemophilus influenzae. The experiment in a line: Antimicrobial activity against Haemophilus influenzae ARC446 after 5 days by microdilution method. To be noted: ARC446, 120 h. The class given is functional.
For data set [25], the system named is Haemophilus influenzae. The experiment in a line: Antimicrobial activity against Haemophilus influenzae ARC158 after 5 days by microdilution method. The class given is functional. The note with it: ARC158, 120 h.
For data set [26], the system named is Staphylococcus aureus. Description: Antimicrobial activity against Staphylococcus aureus ARC517 after 5 days by microdilution method. The class given is functional. The note with it: ARC517, 120 h.

Sequence of Cytochrome P450 2C19 (P33261 whole entry): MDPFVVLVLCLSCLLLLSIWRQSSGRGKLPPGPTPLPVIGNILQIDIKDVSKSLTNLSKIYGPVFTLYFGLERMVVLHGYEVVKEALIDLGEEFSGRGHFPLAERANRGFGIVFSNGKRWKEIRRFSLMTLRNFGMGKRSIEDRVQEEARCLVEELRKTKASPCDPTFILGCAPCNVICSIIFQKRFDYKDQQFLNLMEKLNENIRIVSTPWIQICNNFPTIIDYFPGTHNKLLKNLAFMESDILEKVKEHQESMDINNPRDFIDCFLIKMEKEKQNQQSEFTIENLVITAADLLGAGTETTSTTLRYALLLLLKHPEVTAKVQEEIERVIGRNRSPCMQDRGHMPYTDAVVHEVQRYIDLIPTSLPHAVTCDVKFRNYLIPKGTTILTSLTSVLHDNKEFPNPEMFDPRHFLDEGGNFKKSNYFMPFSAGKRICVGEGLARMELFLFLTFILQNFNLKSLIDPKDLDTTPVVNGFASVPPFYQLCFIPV

Turning to `COc1ccc(-c2ccc(COc3ncccc3C(N)=O)nc2)c(Cl)c1`, in [1], 5.4 µM (≈ 2 µg/mL) was the least that counted as inhibitory (MIC). The MCC at 24 h in data set [2] is above 50 µM.

In data set [1], `Cc1cc(OC[C@H]2CCCO2)ccc1-c1ccc(COc2ncccc2C(N)=O)nc1` returned an MIC of 4.7 µM (≈ 1.97 µg/mL). Also, the MCC at 24 h in data set [2] is above 50 µM.

Compound `COc1ccc(-c2ccc(COc3ncccc3C(N)=O)nc2)c(C)c1` had an MIC in data set [1] of 22 µM (≈ 7.69 µg/mL). The MCC at 24 h in data set [2] was above 50 µM.

The compound `NC(=O)c1cccnc1OCc1ccc(-c2ccccc2)cn1` showed an MIC in data set [1] above 50 µM.

Take `COc1ccc(-c2ccc(COc3ncccc3C(N)=O)cc2)c(C)n1`: the MIC in data set [1] is above 100 µM. In addition, the MCC at 24 h in [2] was above 50 µM.

In turn, `CCN(CC)CCOc1ccc(-c2ccc(COc3ncccc3C(N)=O)nc2)c(C)c1` showed an MIC in data set [1] above 100 µM.

For the compound `Cc1cc(OCC2CCCO2)ccc1-c1ccc(COc2ncccc2C(N)=O)nc1` (stereo not given), the logD in data set [3] turned out to be 2.8. In addition, the MIC in data set [1] was found to be 4.7 µM (≈ 1.97 µg/mL). In addition, in [2], the MCC at 24 h is above 50 µM.

The compound `COCCOc1ccc(-c2ccc(COc3ncccc3C(=O)N(C)C)nc2)c(C)c1` came in with an MIC in data set [1] above 75 µM. The MCC at 24 h in data set [2] was above 50 µM.

`COc1ccc(-c2ccc(COc3ncccc3C(N)=O)nc2)c(F)c1` displayed an MIC in data set [1] of 16.9 µM (≈ 5.97 µg/mL). In data set [2], the MCC at 24 h was above 50 µM.

On to `NC(=O)c1cccnc1OCc1ncc(-c2ccc(OCCCF)cc2Cl)cn1`, for which the MIC80 in data set [4], in data set [5], in [6], in [7], in data set [8] and in [22] was above 60 µM each time. The MIC80 in data set [23], in data set [24], in [25] and in data set [26] was above 60 µM each time. The pH-dependent lipophilicity (logD) in data set [3] came to 2.8. For the same compound, half-maximal inhibition in [9] (IC50) was put at 18 µM. The result in data set [10], in [11], in [12], in data set [13], in data set [14] and in [15] was Active. Moreover, the result in data set [16], in data set [17], in data set [18], in data set [19] and in [20] was Active. Besides, the MIC in data set [21] was above 60 µM; in [1], 0.12 µM (≈ 0.05 µg/mL). Further, the MCC at 24 h in data set [2] was above 250 µM.

`COCCOc1ccc(-c2ccc(COc3ncccc3C(=O)NCCO)nc2)c(C)c1` gave an MIC in data set [1] of 4.5 µM (≈ 1.97 µg/mL). Further, the MCC at 24 h in [2] is above 50 µM.

On to `COCCOc1ccc(-c2cnc(COc3ncccc3C(N)=O)nc2)c(C)c1`, for which the MIC80 in data set [4], in data set [5], in data set [6], in data set [7], in data set [8] and in [22] was above 60 µM in each case. Besides, the MIC80 in [23], in [24], in data set [25] and in data set [26] was above 60 µM each time. The minimal inhibitory concentration (MIC) is above 60 µM in data set [21] and 1.5 µM (≈ 0.592 µg/mL) in data set [1]. For the same compound, the MCC at 24 h in [2] was above 50 µM.

For `COCCOc1ccc(-c2ccc(COc3ncccc3C(=O)N3CCC(O)C3)nc2)c(C)c1` (stereo not given), the MIC in data set [1] is above 75 µM. Moreover, in data set [2], the MCC at 24 h was above 50 µM.
